Each block holds one molecule with its values, some of them ahead of it. Active and inactive are the calls of the source.
Tests used:
Beta-galactosidase [1] = target: T1, Beta-galactosidase (Escherichia coli, UniProt Q8VNN2); experiment: PubChem AID 485352; format: functional
[2] = target: T2, Delta-type opioid receptor (Homo sapiens, UniProt P41143); experiment: HTS Image-Based Screen for Agonists of the DOR Receptor. [Related pubchem assays (depositor defined):AID1777, AID1786, AID2133]; format: functional
T2 sequence (P41143 whole entry): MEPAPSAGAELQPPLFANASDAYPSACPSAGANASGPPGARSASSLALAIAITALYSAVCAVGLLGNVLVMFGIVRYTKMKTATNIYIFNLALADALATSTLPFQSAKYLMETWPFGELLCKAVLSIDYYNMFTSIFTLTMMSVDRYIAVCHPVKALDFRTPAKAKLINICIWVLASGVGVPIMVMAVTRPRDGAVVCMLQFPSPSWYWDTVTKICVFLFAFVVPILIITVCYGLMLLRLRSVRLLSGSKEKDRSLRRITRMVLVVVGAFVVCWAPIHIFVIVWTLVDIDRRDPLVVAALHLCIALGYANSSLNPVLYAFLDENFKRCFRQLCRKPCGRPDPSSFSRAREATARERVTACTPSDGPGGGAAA

Beta-galactosidase [3] = target: T1, Beta-galactosidase; format: functional
[4] = inhibitors of intracellular T. cruzi replication, confirmation, NIH3T3 host cells, beta-gal luminescence (AID 2044); format: functional, cell-based;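 note: intracellular parasites grown in NIH/3T3 mouse fibroblasts as host cells; luminescent beta-galactosidase reporter signal from transgenic T. cruzi replicating inside host cells; inhibitors lower the luminescence signal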
[5] = target: T3, Type-1 angiotensin II receptor (Homo sapiens, UniProt P30556); experiment: AT1 receptor antagonists, dose response, selectivity assay for APJ receptor antagonist project, cell-based, uHTS hits (AID 463214); format: functional;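 note: antagonist potency against angiotensin II stimulated AT1 response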
T3 sequence (P30556 whole entry): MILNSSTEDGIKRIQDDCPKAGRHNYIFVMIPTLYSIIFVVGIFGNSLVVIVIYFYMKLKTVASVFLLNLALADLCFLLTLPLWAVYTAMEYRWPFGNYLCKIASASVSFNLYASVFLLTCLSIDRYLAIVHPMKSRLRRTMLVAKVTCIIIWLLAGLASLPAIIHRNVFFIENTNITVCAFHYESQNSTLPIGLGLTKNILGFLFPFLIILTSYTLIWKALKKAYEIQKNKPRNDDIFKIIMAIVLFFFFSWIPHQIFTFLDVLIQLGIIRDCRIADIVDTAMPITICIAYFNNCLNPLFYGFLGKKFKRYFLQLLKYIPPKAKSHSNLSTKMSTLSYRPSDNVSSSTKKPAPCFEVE

[6] = target: T4, Kappa-type opioid receptor (Homo sapiens, UniProt P41145); format: functional
T4 sequence (P41145 whole entry): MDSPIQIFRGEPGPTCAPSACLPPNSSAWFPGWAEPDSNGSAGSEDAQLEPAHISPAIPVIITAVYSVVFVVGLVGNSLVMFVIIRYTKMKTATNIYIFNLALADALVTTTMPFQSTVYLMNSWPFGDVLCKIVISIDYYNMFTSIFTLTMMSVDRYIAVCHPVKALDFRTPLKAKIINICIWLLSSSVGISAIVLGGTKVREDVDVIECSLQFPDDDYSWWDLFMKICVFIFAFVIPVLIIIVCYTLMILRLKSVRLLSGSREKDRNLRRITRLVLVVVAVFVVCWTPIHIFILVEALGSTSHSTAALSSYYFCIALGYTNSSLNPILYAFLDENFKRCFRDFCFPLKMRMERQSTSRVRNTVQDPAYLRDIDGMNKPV

Mu-type opioid receptor = Mu-type opioid receptor (Homo sapiens, UniProt P35372); experiment: HTS Image-Based Screen for Agonists of the MOR Receptor. [Related pubchem assays (depositor defined):AID1777, AID1785, AID1786, AID2133]; format: functional;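 note: imaging of beta-arrestin GFP recruitment into spots after receptor activation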
Sequence of Mu-type opioid receptor (P35372 whole entry): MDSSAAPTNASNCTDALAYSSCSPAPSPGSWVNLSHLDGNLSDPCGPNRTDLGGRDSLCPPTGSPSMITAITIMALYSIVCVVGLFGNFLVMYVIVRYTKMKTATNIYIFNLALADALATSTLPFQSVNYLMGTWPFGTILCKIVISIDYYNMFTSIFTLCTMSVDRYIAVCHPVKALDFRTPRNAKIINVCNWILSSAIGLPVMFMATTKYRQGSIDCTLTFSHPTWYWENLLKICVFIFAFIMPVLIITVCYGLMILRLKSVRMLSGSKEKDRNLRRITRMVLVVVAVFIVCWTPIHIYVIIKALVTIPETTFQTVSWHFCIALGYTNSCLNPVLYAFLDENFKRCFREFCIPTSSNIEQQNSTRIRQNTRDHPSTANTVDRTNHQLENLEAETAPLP

[7] = target: T2, Delta-type opioid receptor; experiment: HTS Image-Based Screen for Antagonists of the DOR Receptor. [Related pubchem assays (depositor defined):AID1777, AID1785, AID1786, AID2133]; format: functional
[8] = cytotoxicity toward NIH3T3 fibroblasts, dose response, counter-screen, cell-based, ATP luminescence, mouse fibroblasts (AID 2010); format: functional;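 note: cells exposed to compound for about 90 hours before reading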
[9] = target: T4, Kappa-type opioid receptor; format: functional; remark: listed apart in the source
CAAX prenyl protease 2 = CAAX prenyl protease 2 (Homo sapiens, UniProt Q9Y256); experiment: human Rce1 protease inhibitors, dose response, biochemical, yeast membranes, quenched-peptide fluorescence, cherry-pick (AID 588849)
Sequence of CAAX prenyl protease 2 (Q9Y256 whole entry): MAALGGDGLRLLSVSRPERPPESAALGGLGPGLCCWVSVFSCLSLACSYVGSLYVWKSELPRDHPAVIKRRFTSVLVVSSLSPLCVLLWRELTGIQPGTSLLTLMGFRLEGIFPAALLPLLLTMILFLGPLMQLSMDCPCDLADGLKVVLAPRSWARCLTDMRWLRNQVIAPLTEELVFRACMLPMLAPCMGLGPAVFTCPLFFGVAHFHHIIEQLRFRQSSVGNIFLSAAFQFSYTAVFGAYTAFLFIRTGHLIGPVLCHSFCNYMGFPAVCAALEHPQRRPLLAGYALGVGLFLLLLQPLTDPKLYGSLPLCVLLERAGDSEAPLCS

Trypsin = Trypsin (Sus scrofa, UniProt P00761); experiment: porcine trypsin inhibitors, dose response, selectivity assay for Rce1 protease inhibitor project, biochemical, quenched peptide fluorescence, cherry-pick (AID 488789)
Sequence of Trypsin (P00761 whole entry): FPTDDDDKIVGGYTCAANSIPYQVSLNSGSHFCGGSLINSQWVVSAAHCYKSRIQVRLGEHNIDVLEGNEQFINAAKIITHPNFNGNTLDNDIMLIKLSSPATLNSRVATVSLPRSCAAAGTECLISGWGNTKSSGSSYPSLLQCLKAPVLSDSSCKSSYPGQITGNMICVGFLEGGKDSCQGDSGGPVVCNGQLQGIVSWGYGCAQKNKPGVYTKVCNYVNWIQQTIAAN

BJ [10] = experiment: cytotoxicity toward BJ-TERT-LT-ST fibroblasts, dose response, cell-based, RAS-independent, luminescence (AID 1935); format: functional; details: Homo sapiens;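 note: BJ fibroblasts immortalized with TERT plus LT and ST oncogenes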
HEK293 [11] = experiment: cells; details: Homo sapiens
[12] = cytotoxicity toward DRD oncogenic fibroblasts, dose response, cell-based, non-viral oncogenic, luminescence (AID 1934); format: functional; details: Homo sapiens
[13] = target: T5, Microphthalmia-associated transcription factor (Homo sapiens, UniProt O75030); experiment: TRPM1 promoter luciferase signal decrease, dose response, MITF inhibitor project, cell-based, SK-MEL-5, cherry-picked, set 3 (AID 493073); format: functional
T5 sequence (O75030 whole entry): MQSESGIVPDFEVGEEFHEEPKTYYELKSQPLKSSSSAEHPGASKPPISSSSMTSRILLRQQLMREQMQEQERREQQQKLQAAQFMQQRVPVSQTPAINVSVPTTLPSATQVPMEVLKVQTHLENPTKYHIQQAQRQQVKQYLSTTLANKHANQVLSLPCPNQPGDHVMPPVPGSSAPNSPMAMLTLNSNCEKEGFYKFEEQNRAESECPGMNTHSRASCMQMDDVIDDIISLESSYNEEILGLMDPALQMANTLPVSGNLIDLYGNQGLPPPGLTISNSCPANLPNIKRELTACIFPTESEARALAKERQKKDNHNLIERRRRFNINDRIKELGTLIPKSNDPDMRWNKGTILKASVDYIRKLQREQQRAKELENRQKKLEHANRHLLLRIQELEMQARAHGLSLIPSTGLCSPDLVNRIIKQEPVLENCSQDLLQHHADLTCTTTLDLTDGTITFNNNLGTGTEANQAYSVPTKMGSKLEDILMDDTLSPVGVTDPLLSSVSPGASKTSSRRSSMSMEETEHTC

BJ [14] = experiment: cells; format: functional, cell-based; details: Homo sapiens
HEK293 [15] = experiment: cells; details: Homo sapiens; remark: listed apart in the source
BJ [16] = experiment: cytotoxicity toward BJ-TERT fibroblasts, dose response, cell-based, RAS-independent, luminescence (AID 1933); format: functional; details: Homo sapiens
[17] = target: T6, Heat shock factor protein 1 (Mus musculus, UniProt P38532); experiment: HSF1 potentiators in luciferase reporter cells, confirmation, cell-based, NIH3T3, luminescence, dose retest (AID 435004); format: functional;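 note: stress induced by proteasome inhibitor MG132 added 30 min after compound; luciferase reporter driven by HSF1 response element in NIH3T3 cells; actives raise luminescence as potentiators of the MG132 stress response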
T6 sequence (P38532 whole entry): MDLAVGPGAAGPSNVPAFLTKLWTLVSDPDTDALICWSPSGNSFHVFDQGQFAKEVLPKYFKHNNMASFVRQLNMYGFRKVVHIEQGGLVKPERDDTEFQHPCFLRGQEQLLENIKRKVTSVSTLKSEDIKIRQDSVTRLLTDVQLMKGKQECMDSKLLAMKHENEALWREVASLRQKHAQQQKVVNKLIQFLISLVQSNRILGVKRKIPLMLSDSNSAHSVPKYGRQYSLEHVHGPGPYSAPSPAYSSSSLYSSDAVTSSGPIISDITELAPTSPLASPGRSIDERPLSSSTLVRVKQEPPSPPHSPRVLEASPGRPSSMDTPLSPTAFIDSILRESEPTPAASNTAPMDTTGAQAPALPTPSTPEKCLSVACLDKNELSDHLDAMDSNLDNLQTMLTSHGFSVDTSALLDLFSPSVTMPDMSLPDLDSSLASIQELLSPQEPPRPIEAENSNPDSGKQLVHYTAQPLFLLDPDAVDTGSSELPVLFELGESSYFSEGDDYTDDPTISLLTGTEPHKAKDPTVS

[18] = target: T7, Calpain-2 catalytic subunit (Sus scrofa, UniProt P43367); experiment: pig calpain II inhibitor potency, dose response, biochemical, fluorogenic peptide substrate (AID 1420); format: functional
T7 sequence (P43367 whole entry): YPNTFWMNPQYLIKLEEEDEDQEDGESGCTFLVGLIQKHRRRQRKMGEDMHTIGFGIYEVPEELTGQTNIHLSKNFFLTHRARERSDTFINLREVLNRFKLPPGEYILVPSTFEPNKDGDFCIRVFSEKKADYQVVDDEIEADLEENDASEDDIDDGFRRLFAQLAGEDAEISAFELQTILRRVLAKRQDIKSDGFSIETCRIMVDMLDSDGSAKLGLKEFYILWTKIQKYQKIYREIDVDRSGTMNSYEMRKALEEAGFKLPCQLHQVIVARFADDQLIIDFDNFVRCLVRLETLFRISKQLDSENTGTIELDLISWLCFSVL

[19] = target: T8, E3 ubiquitin-protein ligase XIAP (Homo sapiens, UniProt P98170); experiment: XIAP antagonists, biochemical, IAP family, fluorescence polarization (AID 1018); format: functional
T8 sequence (P98170 whole entry): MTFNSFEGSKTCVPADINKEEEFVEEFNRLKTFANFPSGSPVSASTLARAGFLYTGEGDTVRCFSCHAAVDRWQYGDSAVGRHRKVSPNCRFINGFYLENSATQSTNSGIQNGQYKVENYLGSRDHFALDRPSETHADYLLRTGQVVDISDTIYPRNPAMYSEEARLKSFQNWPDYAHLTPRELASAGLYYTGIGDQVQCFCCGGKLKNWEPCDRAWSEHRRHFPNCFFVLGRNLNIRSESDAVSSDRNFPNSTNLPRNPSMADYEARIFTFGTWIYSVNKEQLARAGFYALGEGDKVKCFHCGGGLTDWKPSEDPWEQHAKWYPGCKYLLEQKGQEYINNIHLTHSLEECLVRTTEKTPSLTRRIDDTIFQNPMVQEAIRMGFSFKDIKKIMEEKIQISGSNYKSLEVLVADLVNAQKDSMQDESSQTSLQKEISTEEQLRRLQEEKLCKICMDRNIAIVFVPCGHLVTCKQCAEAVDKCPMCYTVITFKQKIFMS

[20] = target: T8, E3 ubiquitin-protein ligase XIAP; experiment: Counter Screen using XIAP-Bir3 for Chemical Antagonists of Bir1/2 domains of IAP-family anti-apoptotic proteins. [Related pubchem assays (depositor defined):AID1018, AID1449, AID1514, AID1638, AID1749, AID1750, AID488957, AID488963]
[21] = target: Nucleotide-binding oligomerization domain-containing protein 1 (Homo sapiens, UniProt Q9Y239); experiment: NOD1 signaling inhibitors, SAR follow-up, revised (AID 2333); format: functional
Sequence of Nucleotide-binding oligomerization domain-containing protein 1 (Q9Y239 whole entry, the tested form may be a part): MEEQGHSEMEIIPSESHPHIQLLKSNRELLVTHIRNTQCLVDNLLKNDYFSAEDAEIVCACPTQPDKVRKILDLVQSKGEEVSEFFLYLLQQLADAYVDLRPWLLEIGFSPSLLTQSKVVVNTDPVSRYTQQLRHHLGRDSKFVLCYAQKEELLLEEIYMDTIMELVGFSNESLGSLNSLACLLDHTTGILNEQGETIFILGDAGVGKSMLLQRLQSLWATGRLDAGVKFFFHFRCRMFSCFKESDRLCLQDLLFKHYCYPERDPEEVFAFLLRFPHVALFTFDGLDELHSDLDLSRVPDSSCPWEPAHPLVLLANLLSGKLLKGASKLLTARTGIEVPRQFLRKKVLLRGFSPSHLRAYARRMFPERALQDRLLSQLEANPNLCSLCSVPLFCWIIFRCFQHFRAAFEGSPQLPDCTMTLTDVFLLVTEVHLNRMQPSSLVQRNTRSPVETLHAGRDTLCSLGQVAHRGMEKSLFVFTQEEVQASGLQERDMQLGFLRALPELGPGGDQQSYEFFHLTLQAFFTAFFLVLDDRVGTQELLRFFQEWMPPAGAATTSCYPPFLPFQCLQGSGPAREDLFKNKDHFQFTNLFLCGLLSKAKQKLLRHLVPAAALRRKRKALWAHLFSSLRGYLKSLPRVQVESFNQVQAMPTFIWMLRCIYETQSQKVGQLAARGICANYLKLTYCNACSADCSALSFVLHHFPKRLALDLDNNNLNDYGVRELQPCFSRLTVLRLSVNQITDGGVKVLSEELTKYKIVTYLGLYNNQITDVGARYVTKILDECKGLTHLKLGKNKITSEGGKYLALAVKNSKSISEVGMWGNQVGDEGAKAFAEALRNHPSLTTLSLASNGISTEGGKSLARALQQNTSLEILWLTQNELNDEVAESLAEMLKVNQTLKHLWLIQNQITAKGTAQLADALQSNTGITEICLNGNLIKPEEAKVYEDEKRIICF

Tumor necrosis factor = Tumor necrosis factor (Homo sapiens, UniProt P01375); experiment: TNFa-triggered NF-kB activation inhibitors, SAR follow-up, cell-based, revised (AID 2337); format: functional
Sequence of Tumor necrosis factor (P01375 whole entry): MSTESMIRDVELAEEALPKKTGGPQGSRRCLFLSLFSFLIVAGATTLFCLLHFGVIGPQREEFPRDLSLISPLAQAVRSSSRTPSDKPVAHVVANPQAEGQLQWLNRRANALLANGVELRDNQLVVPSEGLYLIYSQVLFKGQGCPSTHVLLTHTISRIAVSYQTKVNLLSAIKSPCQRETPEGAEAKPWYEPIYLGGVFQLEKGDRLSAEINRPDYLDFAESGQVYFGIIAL

HEK293 [22] = experiment: cells; details: Homo sapiens; remark: listed apart in the source
Cytochrome P450 2D6 = Cytochrome P450 2D6 (Homo sapiens, UniProt P10635);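 note: CYP2D6 member of a cytochrome P450 panel assay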
Sequence of Cytochrome P450 2D6 (P10635 whole entry): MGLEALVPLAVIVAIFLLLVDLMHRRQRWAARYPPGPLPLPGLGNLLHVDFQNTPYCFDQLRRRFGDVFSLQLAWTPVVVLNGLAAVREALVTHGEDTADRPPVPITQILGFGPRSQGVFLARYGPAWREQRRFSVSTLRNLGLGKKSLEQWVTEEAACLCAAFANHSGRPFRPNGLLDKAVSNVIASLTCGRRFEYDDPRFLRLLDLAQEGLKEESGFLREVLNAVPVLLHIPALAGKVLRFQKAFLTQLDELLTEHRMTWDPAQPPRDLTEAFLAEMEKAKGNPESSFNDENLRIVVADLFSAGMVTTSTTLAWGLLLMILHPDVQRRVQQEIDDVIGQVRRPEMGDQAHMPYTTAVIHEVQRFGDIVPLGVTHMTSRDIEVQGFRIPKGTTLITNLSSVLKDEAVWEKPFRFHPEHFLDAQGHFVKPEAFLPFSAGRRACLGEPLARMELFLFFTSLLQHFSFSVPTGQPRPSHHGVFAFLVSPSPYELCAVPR

T1 sequence (Q8VNN2 whole entry): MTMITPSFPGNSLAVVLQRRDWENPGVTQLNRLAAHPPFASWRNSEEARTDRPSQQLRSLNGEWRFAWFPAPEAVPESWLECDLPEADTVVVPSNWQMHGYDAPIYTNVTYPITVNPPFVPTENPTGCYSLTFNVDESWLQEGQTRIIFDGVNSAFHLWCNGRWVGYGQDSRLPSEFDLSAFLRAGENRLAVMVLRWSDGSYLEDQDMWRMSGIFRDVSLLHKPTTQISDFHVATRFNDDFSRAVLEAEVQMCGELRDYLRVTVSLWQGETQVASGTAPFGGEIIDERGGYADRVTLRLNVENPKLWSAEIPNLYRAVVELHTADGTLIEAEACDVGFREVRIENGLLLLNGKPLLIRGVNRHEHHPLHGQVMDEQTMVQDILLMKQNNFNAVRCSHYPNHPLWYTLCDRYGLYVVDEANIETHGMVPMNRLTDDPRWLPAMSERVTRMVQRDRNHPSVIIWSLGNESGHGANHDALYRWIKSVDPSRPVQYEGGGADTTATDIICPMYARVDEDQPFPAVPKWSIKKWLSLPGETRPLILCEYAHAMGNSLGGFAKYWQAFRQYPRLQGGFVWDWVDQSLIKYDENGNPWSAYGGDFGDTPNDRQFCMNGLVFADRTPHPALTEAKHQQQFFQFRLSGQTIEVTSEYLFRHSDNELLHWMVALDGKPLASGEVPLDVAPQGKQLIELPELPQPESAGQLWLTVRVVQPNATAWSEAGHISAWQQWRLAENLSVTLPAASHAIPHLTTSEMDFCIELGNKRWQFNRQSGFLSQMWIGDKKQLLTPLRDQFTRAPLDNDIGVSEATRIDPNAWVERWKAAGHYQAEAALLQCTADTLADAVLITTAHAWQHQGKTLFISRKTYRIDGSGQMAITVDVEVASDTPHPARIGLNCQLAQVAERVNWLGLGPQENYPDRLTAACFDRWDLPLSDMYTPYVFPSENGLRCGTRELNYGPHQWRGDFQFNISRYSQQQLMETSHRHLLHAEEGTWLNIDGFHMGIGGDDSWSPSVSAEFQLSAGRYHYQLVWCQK

Structure (SMILES): Cc1ccc2oc(Nc3nc(O)cc(-c4ccccc4)n3)nc2c1
EC50 (Beta-galactosidase [1]): > 40 µM (inactive) | EC50 [2]: > 32 µM (inactive) | EC50 (Beta-galactosidase [3]): > 31.5 µM (inactive) | EC50 [4]: 1.62 µM (active) | IC50 [5]: 3.99 µM (active) | IC50 [6]: 11.9 µM (active) | EC50 (Mu-type opioid receptor): > 32 µM (inactive) | IC50 [7]: > 32 µM (inactive) | EC50 [8]: > 30 µM (not active) | IC50 [9]: > 32 µM

AC50 (CAAX prenyl protease 2): 2.48 µM (active) | AC50 (Trypsin): 5.25 µM (active)
Structure (SMILES): COc1ccccc1Oc1c(C)oc2c(CN3CCN(CCO)CC3)c(O)ccc2c1=O

Structure (SMILES): CN(C)c1nc(C=C(C#N)C#N)c(Cl)n1-c1ccc(F)cc1
EC50 (BJ [10]): 5.12 µM (inconclusive) | EC50 (HEK293 [11]): > 59.6 µM (inactive) | EC50 [12]: 4.24 µM (active) | AC50 [13]: 3.92 µM (active) | EC50 (BJ [14]): 5 µM (active) | EC50 (HEK293 [15]): > 59.6 µM (inactive) | EC50 (BJ [16]): 4.83 µM (active) | EC50 [17]: 27.8 µM (active)

IC50 [18]: > 50 µM (not active) | IC50 [19]: > 100 µM (not active) | IC50 [20]: > 100 µM (inactive)
Structure (SMILES): COc1ccc(/C=C(\NC(=O)c2ccccc2Cl)C(=O)NCCCC(=O)O)cc1

Structure (SMILES): Cc1ccc(N2CCN(S(=O)(=O)c3ccc4c(c3)CC(C)N4C(=O)C3CC3)CC2)cc1 (stereo not given)
IC50 [21]: > 20 µM (inactive) | IC50 (Tumor necrosis factor): > 20 µM (inactive) | IC50 (HEK293 [22]): > 20 µM (inactive)

Structure (SMILES): CCOc1ccc(C(=O)Nc2ccc(CN3CCc4ccccc4C3)cc2)cc1
IC50 [21]: > 20 µM (inactive) | IC50 (Tumor necrosis factor): > 20 µM (inactive) | IC50 (HEK293 [22]): > 20 µM (inactive)

AC50 (Cytochrome P450 2D6): inconclusive
Structure (SMILES): NCCCc1c(-c2ccccc2)nc(N)[nH]c1=O

Source: ChEMBL document CHEMBL1201862, “PubChem BioAssay data set” (2004)
